Among the data in ChEMBL document CHEMBL3860077, “Synthesis and pharmacological evaluation of conformationally constrained glutamic acid higher homologues” (Bioorg Med Chem, 2016) are IC50, Ki and pKi values, retold here.

A value given as a limit tells only on which side of the number the result lay.

A short description of assay [1]: Displacement of [3H]-AMPA from AMPA receptor in rat cortical membranes by scintillation counting method. Format: cell membranes.
The nature of assay [2]: Displacement of [3H]-KAIN from kainic acid receptor in rat cortical membranes by scintillation counting method. Format: cell membranes.
Assay [3] is described as follows: Displacement of [3H]-KAIN from kainic acid receptor in Sprague-Dawley rat brain synaptic membranes after 60 mins by scintillation counting method.
The nature of assay [4]: Displacement of [3H]-AMPA from AMPA receptor in Sprague-Dawley rat brain synaptic membranes after 30 mins by scintillation counting method.
The target of another assay is Glutamate NMDA receptor. Briefly: Displacement of [3H]-CGP39653 from NMDA receptor in Sprague-Dawley rat brain synaptic membranes after 60 mins by scintillation counting method.

`N[C@@H](C[C@H]1CC(C(=O)O)=NO1)C(=O)O` (racemic): the IC50 in assay [1] and in assay [2] was over 100 µM throughout.
Take `N[C@@H](C[C@@H]1CC(C(=O)O)=NO1)C(=O)O` (racemic): the IC50 in assay [1] and in assay [2] was over 100 µM in each case.
On to `N[C@@H](C[C@@H]1CC(c2ccc(C(=O)O)cc2)=NO1)C(=O)O` (racemic), for which the IC50 in assay [3] and in assay [4] was over 100 µM each time. On Glutamate NMDA receptor, the Ki is over 100 µM.
`N[C@@H](C[C@@H]1CC(/C=C/C(=O)O)=NO1)C(=O)O` (racemic): the IC50 in assay [3] and in assay [4] was over 100 µM throughout. The Ki on Glutamate NMDA receptor is over 100 µM.
As to `N[C@@H](C[C@@H]1CC(CCC(=O)O)=NO1)C(=O)O` (racemic), the IC50 in assay [3] is over 100 µM. The IC50 in assay [4] is over 100 µM. On Glutamate NMDA receptor, the Ki was determined as 13 µM and the pKi stood at 4.91.
For `N[C@@H](C[C@@H]1CC(c2ccccc2C(=O)O)=NO1)C(=O)O` (racemic), the IC50 in assay [3] and in assay [4] was over 100 µM each time. Moreover, the affinity at Glutamate NMDA receptor, expressed as Ki, was 3.6 µM.
Turning to `N[C@@H](C[C@H]1CC(c2ccc(C(=O)O)cc2)=NO1)C(=O)O` (racemic), the 50% inhibitory concentration (IC50) in assay [3] and in assay [4] was over 100 µM throughout. Moreover, the Ki at Glutamate NMDA receptor was over 100 µM.
Consider `N[C@@H](C[C@H]1CC(CCC(=O)O)=NO1)C(=O)O` (racemic), for which the IC50 in assay [3] and in assay [4] was over 100 µM each time. In addition, the Ki at Glutamate NMDA receptor was over 100 µM.
In assay [3], `N[C@@H](C[C@H]1CC(c2ccccc2C(=O)O)=NO1)C(=O)O` (racemic) came in with an IC50 of over 100 µM. Also, in assay [4], the IC50 is over 100 µM. At Glutamate NMDA receptor, this compound had a Ki of 22 µM and a pKi of 4.69.
With `N[C@@H](C[C@@H]1CC(c2cccc(C(=O)O)c2)=NO1)C(=O)O` (racemic), the IC50 in assay [3] and in assay [4] was over 100 µM throughout. The compound further yielded a Ki on Glutamate NMDA receptor of 22 µM.
On to `N[C@@H](C[C@H]1CC(c2cccc(C(=O)O)c2)=NO1)C(=O)O` (racemic), for which the IC50 in assay [3] and in assay [4] was over 100 µM in each case. In addition, on Glutamate NMDA receptor, the affinity, expressed as Ki, was 100 µM.
`N[C@@H](C[C@H]1CC(/C=C/C(=O)O)=NO1)C(=O)O` (racemic): the IC50 in assay [3] and in assay [4] was over 100 µM throughout. This compound came in with a Ki at Glutamate NMDA receptor of 68 µM.
